Series [1] has as its system peripheral neuropathies caused by diabetes. The conditions noted are these: 500 mg twice a day for two weeks; cited from earlier work.
Series [2] can be described thus: Stability trial, 5 days at 53° C., degradation evaluated by HPCEC-UV. Format: physicochemical. As to the method: The evaluation of the degradation was carried out by HPCEC-UV analysis using 0.5M (pH 4) ammonium formiate as an eluent, a flow of 1.2 ml/min, and a Supelcosil LC-SCX column (25 cm, 4.6 mm, 5 micron). The product thus obtained was subjected to stability trials according to a procedure similar to the one adopted for the Comparative Example above. […] Also in this case, the evaluation of the degradation was carried out by HPCEC-UV analysis using 0.5M ammonium formiate (pH 4) as an eluent, a flow of 1.2 ml/min, and a Supelcosil LC-SCX column (25 cm, 4.6 mm, 5 μm).

For the molecule `O[C@H]1[C@H](O)[C@@H](O)[C@H](O)[C@@H](O)[C@H]1O` [inositol], in series [1], the therapeutic result is “considerable results”.

Turning to SAMe Phytate Salt [Example 1], in series [2] (5 days at 53° C.), the stability entry was “very stable”.

On to “SAMe salt with phytic acid [SAMe phytate complex]”, for which the SAMe ion was 23.2 % p/p in series [2] (Lot 1, after 5 days at 53° C.); 25.2 % p/p in series [2] (Lot 1, immediately after preparation); 23.3 % p/p in series [2] (Lot 2, after 5 days at 53° C.); 25.1 % p/p in series [2] (Lot 2, immediately after preparation); 23.2 % p/p in series [2] (Lot 3, after 5 days at 53° C.); 25.3 % p/p in series [2] (Lot 3, immediately after preparation). The SAMe ion in series [2] (Mean of 3 lots, after 5 days at 53° C.) is 23.2 % p/p; in series [2] (Mean of 3 lots, immediately after preparation), 25.2 % p/p. For the same molecule, the “% Variation of SAMe ion” value was −7.9% in series [2] (Lot 1, after 5 days at 53° C. vs initial); −7.2% in series [2] (Lot 2, after 5 days at 53° C. vs initial); −8.3% in series [2] (Lot 3, after 5 days at 53° C. vs initial); −7.8% in series [2] (Mean of 3 lots, after 5 days at 53° C. vs initial).

These data come from patent publication US20090175914A1, “Salts or Complexes of Methyl Donors With Phytic Acid or Its Derivatives and Method for the Synthesis Thereof” (priority 2005, published 2009).
